# Target: T1, IKKβ (Homo sapiens, UniProt O14920)
# T1 sequence (O14920 1-756): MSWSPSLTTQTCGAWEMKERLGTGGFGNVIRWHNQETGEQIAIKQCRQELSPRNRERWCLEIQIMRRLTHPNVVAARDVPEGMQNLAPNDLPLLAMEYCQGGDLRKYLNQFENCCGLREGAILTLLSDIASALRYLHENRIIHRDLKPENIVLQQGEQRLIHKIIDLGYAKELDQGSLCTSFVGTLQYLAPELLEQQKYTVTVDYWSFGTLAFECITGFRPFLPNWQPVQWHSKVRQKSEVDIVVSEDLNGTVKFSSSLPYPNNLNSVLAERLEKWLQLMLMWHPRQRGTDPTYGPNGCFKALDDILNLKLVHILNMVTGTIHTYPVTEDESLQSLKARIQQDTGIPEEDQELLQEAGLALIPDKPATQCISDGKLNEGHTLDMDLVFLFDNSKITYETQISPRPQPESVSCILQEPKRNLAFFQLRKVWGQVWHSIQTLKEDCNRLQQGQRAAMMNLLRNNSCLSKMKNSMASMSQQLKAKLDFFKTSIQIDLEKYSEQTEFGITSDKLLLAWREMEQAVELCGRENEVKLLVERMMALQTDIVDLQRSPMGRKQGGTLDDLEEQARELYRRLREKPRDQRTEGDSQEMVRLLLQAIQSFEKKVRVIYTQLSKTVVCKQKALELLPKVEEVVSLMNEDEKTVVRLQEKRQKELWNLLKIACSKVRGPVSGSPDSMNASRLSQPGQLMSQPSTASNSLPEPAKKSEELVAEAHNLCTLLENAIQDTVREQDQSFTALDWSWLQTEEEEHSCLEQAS
# Assay type: biochemical
# Settings: read-out: % inhibition at 100 μM
structure (smiles),measurement,value
CCCCCC(=O)/C=C/C=C\C/C=C\C/C=C\CCCC(=O)O [15-oxoETE],inhibition at 100 µM,> 50%

# From publication PMC4414684 (Chemico-biological interactions, 2014)
